Data from patent US9783535B2 (priority 2012, dated 2017).

How the values were obtained:
a3b4 nAChRs = a3b4 nAChRs (Homo sapiens, UniProt P30926+P32297); assay: Relative potency at a3b4 nAChRs, epibatidine-induced calcium response; assay type: cell-based
Procedure: The HEK293 (a3b4, a4b2 and a7) and SH-SY5Y cell lines (a3b4) expressing nAChRs are used. Validated assays optimized with respect to sensitivity, dynamic range, signal intensity and stability for chemical probe validation and SAR refinement are used.
Nicotinic functional assays are performed using the Molecular Devices FLIPR® Calcium 5 Assay Kit. HEK293 cells overexpressing α3β4, α4β2 or α7 (50,000 cells per well in 100 μl growth media) and are plated in clear bottom black walled 96-well microplates and incubated for 24-48 hours at 37° C., 5% CO2 until a 80-90% confluent monolayer is formed. On the day of the assay, 100 μl of Calcium 5 Dye is added to each well. Following addition of dye, cells are incubated at 25° C. for 60 minutes. Following dye loading, 50 μl of a 5× solution of reference or test compound of appropriate concentration range (0.01-30 μM), prepared in 20 mM HEPES pH 7.4 in HBSS, is added to each well. Plates are then transferred to the Molecular Devices Flexstation® which transfers 50 μL of a 5× solution (500 nM) of epibatine to each well to initiate the Ca+2 flux. Additional wells (in quadruplicate) are prepared with no added test or reference ligand for measurement of 100% flux. The RFU (relative fluorescence units) in the presence of the test or reference compounds is then expressed on the percent scale. The percent inhibition of epibatidine induced Ca^+2 flux is calculated as follows: % inhibition=100%−% RFU (relative fluorescence units). The IC50 values for reference and test compounds are obtained by fitting normalized RFU data using Graphpad Prism software.

[1] = molecular target: T1, kappa opioid receptor (kOR) (Homo sapiens, UniProt P41145); assay: Kappa opioid receptor binding; conditions: read-out: Affinity at kappa opioid receptor
T1 construct: expressed in transfected cells; host or cells: CHO or HEK293 (membranes)
Procedure: Established radioligand binding methods are used to evaluate the ability of the compounds to block reuptake of scrotonin and dopamine in membrane preparations of synaptosomes. Equilibrium binding affinity values is determined for each compound at opioid receptors (μ and κ subtypes) and biogenic amine transporters (DAT and SERT). Where possible, binding experiments utilize membranes derived from CHO or HEK293 cells engineered to overexpress the human form of the receptor or transporter of interest. Radiolabeling of opioid receptors, and biogenic amine transporters utilizes conventional radioligands, buffers and incubation conditions according to published assays.
Test compounds, reference compounds and the radioligand (Kd value) are added to binding buffer. Assays are run with test or reference compound over a range of concentration (0.0001-10 uM) in triplicate using a 96-well sample plate containing radioligands specific for the target receptor or transporter. […] Bound radioactivity is counted in a Microbeta scintillation counter. Total bound radioactivity is estimated from triplicate wells containing no test or reference compound, together with nonspecific binding and filter blanks. The average bound radioactivity in the presence of the test compounds is expressed % inhibition=100%−% radioactivity bound. […]

[2] = tested on: panel of over 50 receptors, transporters, ion channels, second messengers, growth factor receptors and enzymes; assay: Binding panel at physiologically relevant concentrations
Text: The association between cigarette smoking and the presence and severity of suicidal behavior across major psychiatric disorders may be related to lower brain serotonin function in smokers with depression).

[3] = CNS penetration across the blood brain barrier; parameters: species or system mice; conditions: mouse, in vivo
Procedure: Mice are dosed with compounds. Brain to blood ratios are determined by HPLC and LC/MS/MS analysis following oral administration of the test compounds in mice.

a3b4 nAChRs, sequence (P32297 32-505): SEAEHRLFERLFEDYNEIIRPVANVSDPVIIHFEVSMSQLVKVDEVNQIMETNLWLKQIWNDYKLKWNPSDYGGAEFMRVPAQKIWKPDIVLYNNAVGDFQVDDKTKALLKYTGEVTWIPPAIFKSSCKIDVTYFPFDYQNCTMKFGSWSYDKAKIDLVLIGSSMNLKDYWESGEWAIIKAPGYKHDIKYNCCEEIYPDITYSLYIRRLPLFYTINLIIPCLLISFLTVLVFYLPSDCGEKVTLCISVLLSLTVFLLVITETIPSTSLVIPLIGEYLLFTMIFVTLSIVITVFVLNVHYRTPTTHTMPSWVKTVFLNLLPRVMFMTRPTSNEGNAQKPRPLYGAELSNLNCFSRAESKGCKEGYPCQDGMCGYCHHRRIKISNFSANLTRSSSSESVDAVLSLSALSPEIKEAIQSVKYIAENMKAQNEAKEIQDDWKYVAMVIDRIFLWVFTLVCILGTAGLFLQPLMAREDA
a3b4 nAChRs, sequence (P30926 22-498): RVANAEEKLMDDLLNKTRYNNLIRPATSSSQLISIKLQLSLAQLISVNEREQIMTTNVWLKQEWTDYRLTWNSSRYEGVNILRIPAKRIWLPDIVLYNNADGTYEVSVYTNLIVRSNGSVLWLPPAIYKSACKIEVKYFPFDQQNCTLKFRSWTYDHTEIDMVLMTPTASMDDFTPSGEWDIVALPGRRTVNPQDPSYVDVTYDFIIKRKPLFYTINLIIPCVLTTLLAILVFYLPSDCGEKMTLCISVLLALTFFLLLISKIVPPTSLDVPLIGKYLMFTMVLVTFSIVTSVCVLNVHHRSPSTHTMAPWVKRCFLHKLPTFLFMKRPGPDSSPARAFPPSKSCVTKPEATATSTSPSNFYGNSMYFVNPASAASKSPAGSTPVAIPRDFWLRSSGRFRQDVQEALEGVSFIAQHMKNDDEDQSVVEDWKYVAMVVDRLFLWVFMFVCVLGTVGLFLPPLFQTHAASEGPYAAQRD
T1 sequence (P41145 whole entry): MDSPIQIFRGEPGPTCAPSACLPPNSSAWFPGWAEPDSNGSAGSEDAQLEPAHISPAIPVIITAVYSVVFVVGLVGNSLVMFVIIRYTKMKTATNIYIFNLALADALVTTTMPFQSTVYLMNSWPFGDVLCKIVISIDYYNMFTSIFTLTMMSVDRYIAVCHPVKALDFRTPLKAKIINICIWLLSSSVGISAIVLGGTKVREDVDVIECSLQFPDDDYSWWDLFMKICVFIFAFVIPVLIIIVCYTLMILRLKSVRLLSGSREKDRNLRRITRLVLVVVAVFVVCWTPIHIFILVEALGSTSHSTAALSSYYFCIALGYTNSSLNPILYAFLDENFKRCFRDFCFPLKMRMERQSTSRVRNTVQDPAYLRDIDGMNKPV

Row | Compound | Potency as inhibitor of the epibatidine-induced calcium response compared with 18-MC and noribogaine (a3b4 nAChRs; a3b4 nAChRs) | Ki [1] | Targets bound in the panel [2] | Crossing of the BBB and brain concentration [3] | IC50 of the reference 18-MC behind the ratio (a3b4 nAChRs; a3b4 nAChRs, bracketed value in Table 4) | Ratio from 18-MC (a3b4 nAChRs; relative potency at a3b4 nAChRs, 18-MC = 1)
1 | Ibogaine | more potent inhibitors than 18-MC (18-methoxycoronaridine) and noribogaine | – | – | – | – | –
2 | CC[C@H]1CC2C[C@H]3c4[nH]c5ccc(O)cc5c4CCN(C2)C13 [Noribogaine, 12-hydroxyibogamine] | – | 1000 nM | only bound to SERT, DAT, mu and kappa opioid receptors | cross the BBB and reach micromolar concentrations in brain | – | –
3 | COCC[C@H]1CC2CN3CCc4c([nH]c5ccccc45)[C@](C(=O)OC)(C2)[C@H]13 [Compound 18-MC, 18-methoxycoronaridine] | – | – | – | cross the BBB and reach micromolar concentrations in brain | 4000 nM | 1
